Read-outs that look alike come from different tables or passages of the source.
Columns and labels:
[1] = biological target: F17fG receptor-binding domain (Escherichia coli, UniProt Q9RH91); experiment: Surface plasmon resonance steady-state affinity, immobilized F17fG
Method: (§1) The affinity profiles were determined by surface plasmon resonance (SPR) measurements using a BiaCore 3000 instrument (GE Healthcare). […] The proteins were covalently immobilized on CM5 sensor chips (Biacore AB) to an average density of 2000 RU (resonance units in pg/mm^2). On each chip, one flow cell was coated with a camel single domain antibody for use as a reference cell. The other three flow cells (Fc2, Fc3 and Fc4) were coated with three different F17G variants. Carbohydrate concentrations ranging from 10 µM to 10 mM in running buffer (20 mM Hepes, pH 7.4; 150 mM NaCl; 3 mM EDTA and 0.005% surfactant Tween 20) were incubated for one minute on all flow cells simultaneously, at 25 °C and at a flow rate of 30 µL/min. Complete dissociation of the carbohydrates in running buffer was verified before starting a new binding cycle. All binding cycles were performed in duplicate, including a zero concentration cycle (injection of pure running buffer). All analysis was done using the BIAeval software. In each case the equilibrium resonance signal from the reference cell was subtracted from that of the various F17G flow cells (2-1, 3-1, 4-1). A Langmuir binding isotherm with a 1:1 stoichiometry was fitted to the data, from which the equilibrium dissociation constants, Kd, were obtained.

[2] = biological target: T1, F17aG receptor-binding domain (Escherichia coli, UniProt Q99003); experiment: biochemical; settings: SPR steady state, 25 °C, pH 7.4
T1 construct: variants of the lectin domains with oligolysine (4Lys) tails have been constructed; made in house; host or cells: E. coli (periplasm)
T1 sequence (Q99003 23-199): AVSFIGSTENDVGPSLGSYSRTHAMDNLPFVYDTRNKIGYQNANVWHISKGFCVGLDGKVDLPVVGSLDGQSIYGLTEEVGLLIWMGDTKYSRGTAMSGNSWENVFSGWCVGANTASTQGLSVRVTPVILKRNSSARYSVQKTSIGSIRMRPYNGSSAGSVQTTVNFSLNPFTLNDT
Method: as §1

[3] = biological target: F17eG receptor-binding domain; experiment: Surface plasmon resonance steady-state affinity, immobilized F17eG; parameters: species or system Escherichia coli; settings: SPR steady state, 25 °C, pH 7.4
Method: as §1

F17fG lectin domain = experiment: CFG mammalian printed glycan array version 2 (experiment 400), F17fG; format: binding, Escherichia coli; settings: CFG glycan array version 2; F17G at 200 µg/mL; SEM in parentheses
Source text: (§2) The slide was dried under a stream of nitrogen.

F17dG lectin domain = F17dG lectin domain (Escherichia coli, UniProt Q47199); settings: CFG glycan array version 2; F17G at 200 µg/mL; SEM in parentheses
Sequence of F17dG lectin domain (Q47199 23-199): as the sequence (Q99003 23-199) above, with L16P, D33N, R35G, K37N, H47R, K90N counted along it
Method: (§3) A microarray presenting 264 different glycans (mammalian printed array version 2) was used to evaluate if the F17G variant lectin domains differ in the range of glycan receptors that they recognize, thereby establishing tropism. The microarray was set up within the Consortium for Functional Glycomics (CFG) ([20], and supplemental data). Binding of F17G (200 µg/mL) was detected using anti-F17G polyclonal rabbit IgG (10 µg/mL), followed by fluorescently labelled goat anti-rabbit polyclonal antibodies (IgG-488, 5 µg/mL).
(§4) A microarray presenting 264 different glycans (mammalian printed array version 2 from the CFG, experiment 400) was used to evaluate whether the F17G variant lectin domains differ in the range of glycan receptors that they can recognize, thereby establishing strain-dependent tropism. […] The glycan array screening has been repeated for F17aG only on printed array version 4.1 (experiment 2053) (Figure 1).
(§5) Printed array version 2 at the Consortium for Functional Glycomics was used for glycan array screening of the variant F17G receptor binding domains. Slides were printed, with six replicates for each glycan, using glycan spotting concentrations of 100 μM, at the Consortium Carbohydrate Synthesis/Protein Expression Core D located at the Scripps Research Institute onto Schott Nexterion H slides (Schott Cat. No. 1070936B). Slide conditioning: preprinted slides were soaked in deionized water for 5 minutes at room temperature and dried under a stream of nitrogen. TSM buffer (20 mM Tris-HCl, pH 7.4, or MOPS 20 mM; 150 mM NaCl; 2 mM CaCl2, 2 mM MgCl2) was used as wash buffer (TSM buffer + 0.05% Tween 20) or binding buffer (TSM buffer + 0.05% Tween 20 + 1% BSA). (1) F17G was diluted to 200 μg/mL (Figure 1) in TSM binding buffer. (2) 50 μL of F17G was applied to the printed surface and coverslipped. (3) The slide was incubated, protected from light, in a humidified chamber for 1 hour at RT. (4) The slide was washed once in TSM wash buffer. 50 μL of the anti-F17G (10 μg/mL) polyclonal rabbit IgG were applied, coverslipped and incubated for 1 h at RT. (5) The slide was washed once in TSM wash buffer. Fifty μL of fluorescently labelled secondary goat anti-rabbit polyclonal antibodies (IgG-488, 5 µg/mL) were applied, coverslipped and incubated for 1 h at RT. (6) Slide was removed, followed by the coverslip, and washed for 10 s each in TSM wash buffer, TSM wash buffer lacking Tween 20, and deionized water. The slide was dried under a stream of nitrogen. (7) The binding image was read in a Perkin Elmer Microscanarray XL4000 scanner and tiff file of image stored. (8) Image analysis was performed using Imagene (V.6) image analysis software. (9) Raw data results files were generated in Excel format and uploaded to the Consortium database as .dat files. (10) Imagene data was uploaded to the database as .txt files.

F17bG lectin domain = F17bG lectin domain (Escherichia coli, UniProt Q47200); settings: CFG glycan array version 2; F17G at 200 µg/mL; SEM in parentheses
Sequence of F17bG lectin domain (Q47200 23-199): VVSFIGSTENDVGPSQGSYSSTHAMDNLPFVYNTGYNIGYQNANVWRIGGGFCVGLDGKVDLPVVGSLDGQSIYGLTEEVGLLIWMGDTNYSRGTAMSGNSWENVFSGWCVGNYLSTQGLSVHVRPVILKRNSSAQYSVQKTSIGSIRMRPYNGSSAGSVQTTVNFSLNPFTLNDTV
Method: as §3, §4, §5

F17aG lectin domain = F17aG lectin domain (Escherichia coli, UniProt Q99003); settings: CFG glycan array version 2; F17G at 200 µg/mL; SEM in parentheses
Sequence of F17aG lectin domain (Q99003 23-199): as the sequence (Q99003 23-199) above
Method: as §3, §4, §5

F17eG lectin domain = experiment: CFG mammalian printed glycan array version 2 (experiment 400), F17eG; format: binding, Escherichia coli; settings: CFG glycan array version 2; F17G at 200 µg/mL; SEM in parentheses
Source text: as §2

[4] = Affinity range (Kd class), F17aG
[5] = good fit for at least three related experiments, read-out: dissociation constant Kd, F17aG
[6] = read-out: Affinity range (Kd class), F17aG
[7] = good fit for at least three related experiments, read-out: dissociation constant Kd, F17eG
[8] = read-out: Affinity range (Kd class), F17eG
[9] = SPR steady state, 25 °C, pH 7.4, read-out: Affinity range (Kd class), F17fG

Sequence of F17fG receptor-binding domain (Q9RH91 23-198): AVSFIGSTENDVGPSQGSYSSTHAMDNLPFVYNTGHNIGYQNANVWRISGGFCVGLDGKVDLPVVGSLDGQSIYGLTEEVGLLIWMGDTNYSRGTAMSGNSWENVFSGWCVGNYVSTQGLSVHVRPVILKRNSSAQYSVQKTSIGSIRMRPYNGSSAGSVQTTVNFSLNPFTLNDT

| Compound | Relative Fluorescence Units (RFU), averaged over six replicates, F17fG (F17fG lectin domain) | Relative Fluorescence Units (RFU), averaged over six replicates, F17dG (F17dG lectin domain) | Relative Fluorescence Units (RFU), averaged over six replicates, F17bG (F17bG lectin domain) | Relative Fluorescence Units (RFU), averaged over six replicates, F17aG (F17aG lectin domain) | Relative Fluorescence Units (RFU), averaged over six replicates, F17eG (F17eG lectin domain) | other results |
| --- | --- | --- | --- | --- | --- | --- |
| CC(=O)N[C@@H]1[C@@H](O)[C@H](O)[C@@H](CO)O[C@H]1O [GlcNAc, N-acetylglucosamine] |  |  |  |  |  | Kd [1]: 1 to 10 mM; Kd [2, 4]: 1 to 10 mM; Kd ([2]; dissociation constant Kd, F17aG, good fit for at least three related experiments): 1.2 mM |
| CO[C@@H]1O[C@H](CO)[C@H](O)[C@H](O)[C@H]1O[C@@H]1O[C@H](CO)[C@@H](O)[C@H](O)[C@H]1NC(C)=O [GlcNAcβ1,2Gal, GlcNAc(β1-2)Galβ1OMe] |  |  |  |  |  | Kd [2, 5]: 4.2 mM; Kd [2, 6]: 1 to 10 mM; Kd [3, 7]: 2 mM; Kd [3, 8]: 1 to 10 mM |
| CC(=O)N[C@H]1[C@H](O[C@@H]2[C@@H](OC[C@H]3OC(O)[C@@H](O)[C@@H](O[C@H]4O[C@H](CO)[C@@H](O)[C@H](O)[C@@H]4O[C@@H]4O[C@H](CO)[C@@H](O)[C@H](O)[C@H]4NC(C)=O)[C@@H]3O)O[C@H](CO)[C@@H](O)[C@@H]2O)O[C@H](CO)[C@@H](O)[C@@H]1O (stereo partly drawn) [GlcNAcβ1,2Manα1,6(GlcNAcβ1,2Manα1,3)Man] |  |  |  |  |  | Kd [2, 5]: 3 mM; Kd [2, 6]: 1 to 10 mM; Kd [3, 7]: 3 mM; Kd [3, 8]: 1 to 10 mM |
| CC(=O)N[C@H]1[C@H]([C@H](O)[C@H](O)CO)OC(O)(C(=O)O)C[C@@H]1O (stereo partly drawn) [N-acetylneuraminic acid] |  |  |  |  |  | Kd [1]: > 100 mM; Kd [2, 4]: > 100 mM |
| (GlcNAcβ1,3(GlcNAcβ1,6)GlcNAcβ1,4)GlcNAc-Sp8 | 2,992 (992) RFU | 8,080 (1,518) RFU | 6,148 (1,367) RFU | 20,305 (2,023) RFU | 50,775 (6,375) RFU |  |
| GM1 ganglioside |  |  |  |  |  | Kd [1, 9]: > 100 mM |
| Galβ1,4GlcNAcβ1,3Galβ1,4Glcβ-Sp0 | 663 (146) RFU | 919 (375) RFU | 1,090 (262) RFU | 391 (24) RFU | 3,942 (857) RFU |  |
| Galβ1,4GlcNAcβ-Sp0 | 1,279 (106) RFU | 249 (94) RFU | 1,974 (289) RFU | 1,703 (1,070) RFU | 19,659 (4,594) RFU |  |
| GlcNAcβ1,2Galβ1,3GalNAcα-Sp8 | 563 (125) RFU | 75 (35) RFU | 1,016 (239) RFU | 5,082 (4,924) RFU | 305 (148) RFU |  |
| GlcNAcβ1,3Galβ1,3GalNAcα-Sp8 | 31,661 (2,807) RFU | 3,999 (1,481) RFU | 10,655 (880) RFU | 7,713 (866) RFU | 47,984 (3,178) RFU |  |
| GlcNAcβ1,3Galβ1,4GlcNAcβ1,3Galβ1,4GlcNAcβ-Sp0 | 4,334 (856) RFU | 3,599 (772) RFU | 7,563 (2,744) RFU | 10,917 (811) RFU | 43,425 (4,065) RFU |  |
| GlcNAcβ1,3Galβ1,4Glcβ-Sp0 | 26,336 (7,255) RFU | 29,181 (3,281) RFU | 13,149 (2,286) RFU | 57,013 (5,191) RFU | 54,005 (5,715) RFU |  |
| GlcNAcβ1,4(GlcNAcβ1,6)GalNAcα-Sp8 | 19,830 (4,279) RFU | 1,680 (92) RFU | 12,960 (1,692) RFU | 4,520 (2,808) RFU | 38,200 (2,394) RFU |  |
| GlcNAcβ1,4Galβ1,4GlcNAcβ-Sp8 | 7,176 (2,338) RFU | 1,056 (190) RFU | 13,001 (2,039) RFU | 12,499 (1,921) RFU | 39,794 (6,245) RFU |  |
| GlcNAcβ1,6GalNAcα-Sp8 | 26,522 (11,365) RFU | 2,432 (406) RFU | 6,683 (947) RFU | 11,120 (1,871) RFU | 43,848 (4,140) RFU |  |
| GlcNAcβ1,6Galβ1,4GlcNAcβ-Sp8 | 2,269 (561) RFU | 5,119 (1,633) RFU | 5,372 (746) RFU | 9,029 (1,096) RFU | 40,973 (6,555) RFU |  |
| GlcNAcβ1-3Galβ1,4GlcNAcβ-Sp8 | 28,888 (6,925) RFU | 17,991 (4,401) RFU | 15,483 (1,729) RFU | 51,880 (5,023) RFU | 49,223 (5,377) RFU |  |
| Neu5Acα2,3(Neu5Acα2,6)GalNAcα-Sp8 | 1,717 (229) RFU | 1,388 (1,162) RFU | 4,331 (1,760) RFU | 4,527 (4,043) RFU | 1,229 (1,162) RFU |  |
| Neu5Acα2,3Galβ1,3(Neu5Acα2,6)GlcNAcβ1,3Gal β1,4Glc |  |  |  |  |  | Kd [1, 9]: > 100 mM |
| Neu5Acα2,3Galβ1,4GlcNAcβ1,2 Man |  |  |  |  |  | Kd [3, 8]: 10 to 100 mM |

From PMC3960879 (Biology, 2013)
